Test results from ChEMBL document CHEMBL5223128, “Biphenyl-based small molecule inhibitors: Novel cancer immunotherapeutic agents targeting PD-1/PD-L1 interaction” (Bioorg Med Chem, 2022).

Key:
[1] = molecular target: T1, Programmed cell death protein 1/Programmed cell death 1 ligand 1 (Homo sapiens, UniProt Q9NZQ7); experiment: Inhibition of human PD-1/PDL1 protein-protein interaction by HTRF assay; format: protein-complex assay
[2] = molecular target: T1, Programmed cell death protein 1/Programmed cell death 1 ligand 1; experiment: Inhibition of human PD-1/PDL1 protein-protein interaction; format: protein-complex assay
[3] = molecular target: Programmed cell death protein 1 (Homo sapiens, UniProt Q15116); experiment: Binding affinity to human PD-1 assessed as dissociation constant by SPR assay
Programmed cell death protein 1, sequence (Q15116 whole entry): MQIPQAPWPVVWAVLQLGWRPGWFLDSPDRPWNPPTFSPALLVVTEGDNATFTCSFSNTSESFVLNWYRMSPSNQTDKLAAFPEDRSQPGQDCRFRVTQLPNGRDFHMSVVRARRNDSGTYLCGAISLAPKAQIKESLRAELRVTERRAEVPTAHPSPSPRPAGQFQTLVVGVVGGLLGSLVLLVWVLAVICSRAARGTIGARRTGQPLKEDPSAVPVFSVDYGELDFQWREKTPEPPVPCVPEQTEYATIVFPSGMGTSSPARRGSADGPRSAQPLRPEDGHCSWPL

[4] = molecular target: T1, Programmed cell death protein 1/Programmed cell death 1 ligand 1; experiment: Inhibition of human PD-1/PDL1 protein-protein interaction by luminescence proximity homogeneous assay; format: protein-complex assay
[5] = molecular target: Programmed cell death 1 ligand 1 (Homo sapiens, UniProt Q9NZQ7); experiment: Binding affinity to human PDL1 assessed as dissociation constant by MST method
Programmed cell death 1 ligand 1, sequence (Q9NZQ7 whole entry): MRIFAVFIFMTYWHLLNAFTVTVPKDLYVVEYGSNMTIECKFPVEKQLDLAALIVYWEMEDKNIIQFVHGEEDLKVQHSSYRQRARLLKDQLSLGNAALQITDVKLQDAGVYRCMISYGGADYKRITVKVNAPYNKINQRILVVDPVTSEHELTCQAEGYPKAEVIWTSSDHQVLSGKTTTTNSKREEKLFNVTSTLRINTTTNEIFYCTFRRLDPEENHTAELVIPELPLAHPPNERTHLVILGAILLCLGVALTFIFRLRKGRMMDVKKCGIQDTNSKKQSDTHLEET

T1 sequence (Q15116 whole entry): as the sequence (Q15116 whole entry) above
T1 sequence (Q9NZQ7 whole entry): as the sequence (Q9NZQ7 whole entry) above

Compound | IC50 [1] [nM] | also measured
COc1cccc(-c2cccc(NC(=O)c3nc4c(n3C)CCNC4)c2C)c1F | ≤ 100 | –
Cc1c(NC(=O)c2nc3c(s2)CNCC3)cccc1-c1cccc2[nH]ncc12 | ≤ 100 | –
CCOc1cccc(-c2cccc(-c3nc4c(s3)CNCC4)c2C)c1 | ≤ 100 | –
Cc1c(-c2ccccc2)cccc1-c1nc2cc(CNCCO)cc(C)c2o1 | ≤ 10 | –
Cc1c(Nc2nccc3c(CNCCO)ccnc23)cccc1-c1ccc2c(c1)OCCO2 | ≤ 10 | –
Cc1c(-c2ccccc2)cccc1-c1nc2cc(CN3CCCC[C@H]3C(=O)O)c(OCC#N)cc2o1 | ≤ 10 | –
Cc1c(NC(=O)c2nc3c(s2)CNCC3)cccc1-c1ccccc1 | ≤ 100 | –
Cc1c(-c2ccccc2)cccc1-c1nc2c(s1)CN(C)CC2 | ≤ 100 | –
Cc1cc(C(=O)Nc2cccc(-c3ccccc3)c2C)ncc1CN1CCCC[C@H]1C(=O)O | ≤ 10 | –
Cn1ncc2c(-c3cccc(NC(=O)c4nc5c(s4)CNCC5)c3Cl)cccc21 | ≤ 100 | –
Cc1c(-c2cccc(CC(N)=O)c2)cccc1-c1nc2c(s1)CNCC2 | ≤ 100 | –
Cc1c(NC(=O)c2nc3c(s2)CNCC3)cccc1-c1ccc2c(c1)OCCO2 | ≤ 100 | –
Cc1c(-c2ccccc2)cccc1-c1nc2cc(CN3CCCC[C@H]3C(=O)O)c(OCCCC#N)cc2o1 | ≤ 10 | –
Cc1c(-c2ccccc2)cccc1-c1nc2cc(CNCCO)ccn2n1 | ≤ 100 | –
Cc1c(-c2ccccc2)cccc1-c1nc2cc(CNCCO)c(OCCN3CCOCC3)cc2o1 | ≤ 10 | –
COc1cccc(-c2cccc(NC(=O)c3nc4c(s3)CNCC4)c2C#N)c1 | ≤ 100 | –
Cc1c(-c2ccccc2)cccc1-c1nc2c(o1)CCNC2 | ≤ 100 | –
Cc1cc(CNCCO)cc2nc(-c3cccc(-c4ccccc4)c3C#N)oc12 | ≤ 10 | –
COc1cccc(-c2cccc(NC(=O)c3nc4c(s3)CNCC4)c2Cl)c1F | ≤ 100 | –
N#Cc1c(-c2ccc3c(c2)OCCO3)cccc1-c1nc2c(Cl)cc(CNCCO)cn2n1 | ≤ 100 | –
Cc1c(-c2ccccc2)cccc1-c1nc2c(s1)CN(CCO)CC2 | ≤ 100 | –
N#Cc1c(NC(=O)c2ccc(CNCCO)cn2)cccc1C1=CCCCC1 | ≤ 10 | –
N#Cc1c(NC(=O)c2nc3c(s2)CNCC3)cccc1-c1ccccc1 | ≤ 100 | –
Cc1c(-c2ccccc2)cccc1-c1nc2cc(CNCCO)c(OCC#N)cc2o1 | ≤ 10 | –

Compound | IC50 [1] [nM] | also measured
COc1cccc(-c2cccc(NC(=O)c3nc4c(n3C)CCNC4)c2C#N)c1F | ≤ 100 | –
Cc1c(-c2ccccc2)cccc1-c1nc2c(CC#N)cc(CNCCO)cn2n1 | ≤ 100 | –
Cc1cc(CNCCO)cc2nc(-c3cccc(-c4ccc5c(c4)OCCO5)c3C#N)oc12 | ≤ 10 | –
COc1cc(OC)c(F)c(-c2cccc(-c3nc4c(s3)CNCC4)c2C)c1F | ≤ 100 | –
Cc1c(Nc2nccc3cc(CNCCO)cnc23)cccc1-c1ccccc1 | ≤ 10 | –
COc1cc(OCc2cccc(-c3ccccc3)c2C)cc(OC)c1CCCC1CC(=O)N1 (configuration not stated) | 22 | IC50 [2]: 18 nM
N#Cc1c(NC(=O)c2nc3c(s2)CNCC3)cccc1-c1c(F)cccc1F | ≤ 100 | –
Cc1c(-c2ccccc2)cccc1-c1nc2cc(CNCCO)c(OCc3ccccn3)cc2o1 | ≤ 10 | –
COc1cccc(-c2cccc(NC(=O)c3nc4c(n3C)CCN(CCO)C4)c2C#N)c1F | ≤ 100 | –
Cc1c(NC(=O)c2nc3c(s2)CNCC3)cc(F)cc1-c1ccc2c(c1)OCCO2 | ≤ 100 | –
Cc1c(Nc2nccc3cc(CNCCO)cnc23)cccc1C1=CCCCC1 | ≤ 10 | –
N#CCc1cc(CNCCO)cn2nc(-c3cccc(-c4ccc5c(c4)OCCO5)c3C#N)nc12 | ≤ 100 | –
COc1cccc(-c2cccc(NC(=O)c3nc4c(s3)CNCC4)c2C#N)c1F | ≤ 100 | –
Cn1c(C(=O)Nc2cccc(-c3ccc4c(c3)OCCO4)c2C#N)nc2c1CCN(CCO)C2 | ≤ 100 | –
Cc1c(-c2ccccc2)cccc1-c1nc2c(s1)CN(CCCC(=O)O)CC2 | ≤ 100 | –
N#Cc1c(NC(=O)c2nc3c(s2)CNCC3)cccc1-c1ccccc1F | ≤ 100 | –
Cc1c(NC(=O)c2nc3c(s2)CN(CCO)CC3)cccc1-c1ccccc1 | ≤ 100 | –
Cc1c(-c2ccccc2)cccc1-c1nc2c(Cl)cc(CNCCO)cn2n1 | ≤ 100 | –
N#Cc1c(NC(=O)c2nc3c(s2)CNCC3)cccc1C1=CCCCC1 | ≤ 100 | –
Cc1c(-c2ccccc2)cccc1-c1nc2c(s1)CNCC2 | ≤ 100 | –
N#Cc1c(-c2ccc3c(c2)OCCO3)cccc1-c1nc2c(C#N)cc(CNCCO)cn2n1 | ≤ 100 | –
Cc1c(-c2ccccc2)cccc1-n1cc2c(n1)CNCC2 | ≤ 100 | –
Cc1c(C2=CCCCC2)cccc1-c1nc2c(s1)CNCC2 | ≤ 100 | –
COc1cc(OC)cc(-c2cccc(-c3nc4c(s3)CNCC4)c2C)c1 | ≤ 100 | –

Compound | IC50 [1] [nM] | also measured
Cc1c(-c2ccccc2)cccc1-c1cn2cc(CNCCO)ncc2n1 | ≤ 100 | –
Cc1c(-c2ccccc2)cccc1-c1nc2ccc(CNCCO)cn2n1 | ≤ 100 | –
Cc1c(-c2ccc3c(c2)OCCO3)ccnc1-c1nc2c(s1)CNCC2 | ≤ 100 | –
Cc1cc(C(=O)Nc2cccc(-c3ccccc3)c2C)ncc1CNCCO | ≤ 10 | –
COc1cc(F)cc(-c2cccc(NC(=O)c3nc4c(s3)CNCC4)c2C#N)c1 | ≤ 100 | –
Cc1c(-c2nc3cc(CNCCO)c(OCC#N)cc3o2)cccc1-c1ccccc1F | ≤ 10 | –
Cc1c(-c2ccccc2)cccc1-c1nc2cc(CNCCO)nc(C)n2n1 | ≤ 100 | –
COc1cccc(-c2cccc(NC(=O)c3cn4c(n3)CNCC4)c2C#N)c1F | ≤ 100 | –
O=C(O)[C@@H](CO)NCc1cc(Cl)c(OCc2cccc(-c3ccccc3)c2Br)cc1OCc1ccc2nonc2c1 | – | Kd [3]: 3.34 nM
Cc1c(-c2ccccc2)cccc1-c1nc2c(o1)CNCC2 | ≤ 100 | –
N#Cc1c(NC(=O)c2nc3c(s2)CNCC3)cccc1-c1ccc2c(c1)OCCO2 | ≤ 100 | –
Cc1c(-c2ccc3c(c2)OCCO3)cccc1-c1nc2cc(CN3CCCC[C@H]3C(=O)O)c(OCC#N)cc2o1 | ≤ 10 | –
Cn1c(C(=O)Nc2cccc(-c3ccc4c(c3)OCCO4)c2C#N)nc2c1CCNC2 | ≤ 100 | –
Cc1cc(C(=O)Nc2cc(F)cc(-c3ccc4c(c3)OCCO4)c2C)ncc1CNCCO | ≤ 10 | –
COc1cccc(-c2cccc(NC(=O)c3nc4c(s3)CNCC4)c2C)c1F | ≤ 100 | –
Cc1c(-c2nc3c(s2)CNCC3)cccc1-c1cccc2c1cnn2C | ≤ 100 | –
N#Cc1c(NC(=O)c2nc3c(s2)CNCC3)cccc1-c1ccccc1Cl | ≤ 100 | –
N#Cc1c(NC(=O)c2nc3c(s2)CNCC3)cccc1-c1ccc2c(c1)OCC2 | ≤ 100 | –
Cc1c(-c2ccccc2)ccnc1-c1nc2c(s1)CNCC2 | ≤ 100 | –
Cc1c(Nc2nccc3c(CN4CCCCC4C(=O)O)ccnc23)cccc1-c1ccccc1 (configuration not stated) | ≤ 10 | –
O=C(Nc1cccc(-c2ccccc2)c1Cl)c1nc2c(s1)CNCC2 | ≤ 100 | –
Cc1c(-c2ccccc2)cccc1-c1nc2c(o1)CCN(C)C2 | ≤ 100 | –
Cc1c(-c2ccccc2)cccc1-c1cn2nc(CNCCO)cnc2n1 | ≤ 100 | –
Cn1cnc2c(-c3cccc(NC(=O)c4ccc(CNCCO)cn4)c3C#N)cccc21 | ≤ 10 | –

Compound | IC50 [1] [nM] | also measured
N#Cc1c(NC(=O)c2ccc(CNCCO)cn2)cccc1-c1ccc2c(c1)OCCO2 | ≤ 10 | –
Cc1c(NC(=O)c2nc3c(s2)CNCC3)cccc1-c1cccc2c1cnn2C | ≤ 100 | –
Cc1c(NC(=O)c2nc3c(s2)CN(CC(=O)O)CC3)cccc1-c1ccccc1 | ≤ 100 | –
Cc1c(-c2ccccc2)cccc1-c1nc2c(CCCC#N)cc(CNCCO)cn2n1 | ≤ 100 | –
N#Cc1c(Nc2nccc3cc(CNCCO)cnc23)cccc1-c1ccc2c(c1)OCCO2 | ≤ 10 | –
O=C(Nc1cccc(-c2ccc3c(c2)OCCO3)c1Cl)c1nc2c(s1)CNCC2 | ≤ 100 | –
Cc1c(Nc2nccc3cc(CNCCO)cnc23)cccc1-c1ccc2c(c1)OCCO2 | ≤ 10 | –
Cc1c(COc2cc(OCc3ccc(OC(F)(F)F)cc3)c(N3CCCCC3C(=O)O)cc2Cl)cccc1-c1ccccc1 (configuration not stated) | 56.6 | IC50 [4]: 1500 nM
COc1c(CNCCO)cnc2c(Nc3cccc(-c4ccccc4)c3C)nccc12 | ≤ 10 | –
Cc1c(-c2ccccc2)cccc1N1C(=O)c2cc(CN[C@H](C(=O)O)C(C)O)c(OCc3cccc(C#N)c3)cc2C1=O (some centres not stated) | – | Kd [5]: 24.4 nM
N#Cc1c(Nc2nccc3cc(CNCCO)cnc23)cccc1-c1ccccc1 | ≤ 10 | –
COc1cccc(-c2ccnc(-c3nc4c(s3)CNCC4)c2C)c1 | ≤ 100 | –
COc1cccc(-c2cccc(-c3nc4c(s3)CNCC4)c2C)c1 | ≤ 100 | –
Cc1c(-c2cccc(C(N)=O)c2)cccc1-c1nc2c(s1)CNCC2 | ≤ 100 | –
COc1cc2oc(-c3cccc(-c4ccccc4)c3C)nc2cc1CNCCO | ≤ 10 | –
Cc1c(-c2ccccc2)cccc1-c1nc2c(s1)CN(C[C@H](C)O)CC2 | ≤ 100 | –
N#Cc1c(Nc2nccc3nc(CNCCO)cnc23)cccc1C1=CCCCC1 | ≤ 10 | –
N#Cc1c(-c2ccc3c(c2)OCCO3)cccc1-c1nc2c(s1)CNCC2 | ≤ 100 | –
Cc1c(-c2ccccc2)ccnc1-c1nc2c(s1)CN(C1CCC(C(=O)O)CC1)CC2 (configuration not stated) | ≤ 100 | –
Cc1c(-c2ccc3c(c2)OCCO3)cccc1-c1nc2cc(CNCCO)cc(C)c2o1 | ≤ 10 | –
Cc1c(-c2ccccc2)cccc1-c1nc2cc(CNCCO)ccc2o1 | ≤ 10 | –
Cn1ncc2c(-c3cccc(NC(=O)c4nc5c(s4)CNCC5)c3C#N)cccc21 | ≤ 100 | –
N#Cc1c(NC(=O)c2ccc(CNCCO)cn2)cccc1-c1ccccc1 | ≤ 10 | –
